Test results: ChEMBL document CHEMBL4609983, “Pan-specific and partially selective dye-labeled peptidic inhibitors of the polycomb paralog proteins” (Bioorg Med Chem, 2020)
Non-standard residues stand in square brackets, D forms with d. Residues, ends and D or L forms follow the SMILES beside them. *: point of attachment. X1 = O=C(O)c1cc(NC(=S)*)ccc1-c1c2ccc(=O)cc-2oc2cc(O)ccc12; Lys(Me3) = C[N+](C)(C)CCCC[C@H](N)C(=O)O; Benzoyl(4-Br) = O=C(c1ccc(Br)cc1)*; Gly(cPent) = N[C@H](C(=O)O)C1CCCC1; Abu = CC[C@H](N)C(=O)O

Experiments:
[1] = molecular target: T1, Chromobox protein homolog 8 (Homo sapiens, UniProt Q9HC52); assay: Binding affinity to CBX8 (unknown origin) assessed as dissociation constant by fluorescence polarization analysis
T1 sequence (Q9HC52 whole entry): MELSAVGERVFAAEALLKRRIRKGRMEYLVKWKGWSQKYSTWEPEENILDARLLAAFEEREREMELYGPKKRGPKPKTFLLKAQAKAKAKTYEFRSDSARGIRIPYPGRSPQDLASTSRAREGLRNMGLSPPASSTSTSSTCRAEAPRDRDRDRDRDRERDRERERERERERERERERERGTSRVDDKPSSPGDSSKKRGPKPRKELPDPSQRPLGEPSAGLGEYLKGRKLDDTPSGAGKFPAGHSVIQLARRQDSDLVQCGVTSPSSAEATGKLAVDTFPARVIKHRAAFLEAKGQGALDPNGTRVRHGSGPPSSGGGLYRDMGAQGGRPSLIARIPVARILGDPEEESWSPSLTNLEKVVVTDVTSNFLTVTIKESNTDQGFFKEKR

[2] = molecular target: T2, Chromobox protein homolog 6 (Homo sapiens, UniProt O95503); assay: Binding affinity to CBX6 (unknown origin) assessed as dissociation constant by fluorescence polarization analysis
T2 sequence (O95503 whole entry): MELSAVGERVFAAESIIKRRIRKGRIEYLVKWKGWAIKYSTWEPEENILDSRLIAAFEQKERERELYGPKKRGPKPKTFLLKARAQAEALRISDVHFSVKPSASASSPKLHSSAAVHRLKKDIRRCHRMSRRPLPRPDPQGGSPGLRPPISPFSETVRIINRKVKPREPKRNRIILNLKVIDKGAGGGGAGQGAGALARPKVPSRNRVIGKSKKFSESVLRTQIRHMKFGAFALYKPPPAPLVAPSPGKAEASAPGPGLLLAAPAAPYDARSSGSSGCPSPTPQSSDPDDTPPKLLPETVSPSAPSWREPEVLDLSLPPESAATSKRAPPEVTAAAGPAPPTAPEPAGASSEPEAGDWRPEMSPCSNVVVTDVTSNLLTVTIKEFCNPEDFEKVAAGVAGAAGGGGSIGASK

[3] = molecular target: Chromobox protein homolog 1 (Homo sapiens, UniProt P83916); assay: Binding affinity to CBX1 (unknown origin) assessed as dissociation constant by fluorescence polarization analysis
[4] = molecular target: T3, Chromobox protein homolog 2 (Homo sapiens, UniProt Q14781); assay: Binding affinity to CBX2 (unknown origin) assessed as dissociation constant by fluorescence polarization analysis
T3 sequence (Q14781 whole entry): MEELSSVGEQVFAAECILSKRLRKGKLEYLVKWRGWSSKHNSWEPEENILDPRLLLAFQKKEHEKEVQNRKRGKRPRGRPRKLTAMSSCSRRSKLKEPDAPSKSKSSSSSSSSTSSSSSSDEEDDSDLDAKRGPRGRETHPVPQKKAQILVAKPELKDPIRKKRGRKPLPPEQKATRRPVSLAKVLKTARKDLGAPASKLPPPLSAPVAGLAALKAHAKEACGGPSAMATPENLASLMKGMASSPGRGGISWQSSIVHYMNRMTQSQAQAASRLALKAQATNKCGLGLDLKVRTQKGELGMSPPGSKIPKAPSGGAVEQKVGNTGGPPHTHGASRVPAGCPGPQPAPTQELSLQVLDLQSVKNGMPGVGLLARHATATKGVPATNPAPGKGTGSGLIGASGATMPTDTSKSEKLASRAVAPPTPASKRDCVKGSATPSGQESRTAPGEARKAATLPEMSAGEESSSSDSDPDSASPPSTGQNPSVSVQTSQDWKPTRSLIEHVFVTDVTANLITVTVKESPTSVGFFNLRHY

[5] = molecular target: T4, Chromobox protein homolog 7 (Homo sapiens, UniProt O95931); assay: Binding affinity to CBX7 (unknown origin) assessed as dissociation constant by fluorescence polarization analysis
T4 sequence (O95931 whole entry): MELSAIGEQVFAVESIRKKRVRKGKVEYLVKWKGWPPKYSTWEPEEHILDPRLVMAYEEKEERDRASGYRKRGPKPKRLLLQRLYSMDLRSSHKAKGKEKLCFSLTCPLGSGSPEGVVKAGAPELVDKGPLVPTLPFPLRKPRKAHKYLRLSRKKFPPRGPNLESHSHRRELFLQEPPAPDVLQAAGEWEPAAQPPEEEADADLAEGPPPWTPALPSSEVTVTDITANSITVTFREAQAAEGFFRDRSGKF

[6] = molecular target: T5, E3 SUMO-protein ligase CBX4 (Homo sapiens, UniProt O00257); assay: Binding affinity to CBX4 (unknown origin) assessed as dissociation constant by fluorescence polarization analysis
T5 sequence (O00257 whole entry): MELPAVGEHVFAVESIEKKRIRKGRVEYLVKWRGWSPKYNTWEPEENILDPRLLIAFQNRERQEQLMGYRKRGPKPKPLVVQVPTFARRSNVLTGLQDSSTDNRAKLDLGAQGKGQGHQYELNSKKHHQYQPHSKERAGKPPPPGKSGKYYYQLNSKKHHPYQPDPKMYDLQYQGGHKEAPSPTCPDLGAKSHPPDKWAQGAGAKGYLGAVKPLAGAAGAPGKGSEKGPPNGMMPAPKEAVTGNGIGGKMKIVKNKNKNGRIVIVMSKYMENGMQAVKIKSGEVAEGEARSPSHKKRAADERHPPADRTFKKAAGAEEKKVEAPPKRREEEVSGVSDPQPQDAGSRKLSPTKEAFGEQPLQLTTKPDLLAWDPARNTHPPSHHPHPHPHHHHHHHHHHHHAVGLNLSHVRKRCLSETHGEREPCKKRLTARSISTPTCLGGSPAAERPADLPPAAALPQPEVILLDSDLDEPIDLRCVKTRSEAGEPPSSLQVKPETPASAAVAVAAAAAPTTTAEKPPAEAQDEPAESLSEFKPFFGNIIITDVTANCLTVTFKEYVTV

Homo sapiens [7] = species on record: Homo sapiens; assay: Selectivity ratio of IC50 for CBX6 (unknown origin) to IC50 for CBX7 (unknown origin)
[8] = molecular target: T4, Chromobox protein homolog 7; assay: Inhibition of CBX7 (unknown origin) assessed as […] by competitive FP assay
[9] = molecular target: T1, Chromobox protein homolog 8; assay: Inhibition of CBX8 (unknown origin) assessed as […] by competitive FP assay
[10] = molecular target: T2, Chromobox protein homolog 6; assay: Inhibition of CBX6 (unknown origin) assessed as […] by competitive FP assay
Homo sapiens [11] = species on record: Homo sapiens; assay: Selectivity ratio of IC50 for CBX8 (unknown origin) to IC50 for CBX7 (unknown origin)
TOV21G = assay: Decrease in cell viability in human TOV21G cells by MTT assay; format: cell-based
Homo sapiens [12] = species on record: Homo sapiens; assay: Selectivity ratio of Kd for CBX7 (unknown origin) to Kd for CBX6 (unknown origin)
Homo sapiens [13] = species on record: Homo sapiens; assay: Selectivity ratio of Kd for CBX4 (unknown origin) to Kd for CBX8 (unknown origin)
Homo sapiens [14] = species on record: Homo sapiens; assay: Selectivity ratio of Kd for CBX1 (unknown origin) to Kd for CBX8 (unknown origin)
Homo sapiens [15] = species on record: Homo sapiens; assay: Selectivity ratio of Kd for CBX2 (unknown origin) to Kd for CBX8 (unknown origin)
Homo sapiens [16] = species on record: Homo sapiens; assay: Selectivity ratio of Kd for CBX7 (unknown origin) to Kd for CBX8 (unknown origin)

Chromobox protein homolog 1, sequence (P83916 whole entry): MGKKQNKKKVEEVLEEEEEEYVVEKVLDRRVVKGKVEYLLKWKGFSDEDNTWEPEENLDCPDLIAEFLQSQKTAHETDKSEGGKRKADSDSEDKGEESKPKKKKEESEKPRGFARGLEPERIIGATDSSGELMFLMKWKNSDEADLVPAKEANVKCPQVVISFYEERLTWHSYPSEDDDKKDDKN

| Compound | Kd [1] [nM] | Kd [2] [nM] | Kd [3] [nM] | Kd [4] [nM] | Kd [5] [nM] | Kd [6] [nM] | Ratio IC50 (Homo sapiens [7]) | IC50 [8] [nM] | IC50 [9] [nM] | IC50 [10] [nM] | Ratio IC50 (Homo sapiens [11]) | Selectivity ratio (Homo sapiens [12]) | Selectivity ratio (Homo sapiens [13]) | Selectivity ratio (Homo sapiens [14]) | Selectivity ratio (Homo sapiens [15]) | Selectivity ratio (Homo sapiens [16]) | Activity (TOV21G) |
| --- | --- | --- | --- | --- | --- | --- | --- | --- | --- | --- | --- | --- | --- | --- | --- | --- | --- |
| C[C@H](NC(=O)[C@H](Cc1ccccc1)NC(=O)c1ccc(Br)cc1)C(=O)N[C@@H](Cc1ccc(O)cc1)C(=O)N[C@@H](CCCC[N+](C)(C)C)C(=O)N[C@@H](CO)C(N)=O ({Benzoyl(4-Br)}-FAY[Lys(Me3)]S-NH2) | – | – | – | – | – | – | 7 | 2300 | 42000 | 16000 | 18 | – | – | – | – | – | – |
| CC[C@H](NC(=O)[C@H](Cc1ccccc1)NC(=O)c1ccc(Br)cc1)C(=O)N[C@@H](Cc1ccccc1)C(=O)N[C@@H](CCCC[N+](C)(C)C)C(=O)N[C@@H](CO)C(=O)N[C@@H](CCC(=O)O)C(=O)N[C@@H](CCCCNC(=S)Nc1ccc(-c2c3ccc(=O)cc-3oc3cc(O)ccc23)c(C(=O)O)c1)C(N)=O ({Benzoyl(4-Br)}-F[Abu]F[Lys(Me3)]SEK(X1)-NH2) | 960 | 800 | 180000 | 1500 | 300 | 700 | – | – | – | – | – | – | – | – | – | – | – |
| CC[C@H](NC(=O)[C@H](Cc1ccccc1)NC(=O)[C@H](Cc1ccccc1)NC(C)=O)C(=O)N[C@H](C(=O)N[C@@H](CCCC[N+](C)(C)C)C(=O)N[C@@H](CO)C(=O)N[C@@H](CCC(=O)O)C(=O)N[C@@H](CCCCNC(=S)Nc1ccc(-c2c3ccc(=O)cc-3oc3cc(O)ccc23)c(C(=O)O)c1)C(N)=O)C1CCCC1 (Ac-FF[Abu][Gly(cPent)][Lys(Me3)]SEK(X1)-NH2) | 700 | 400 | 99000 | 10000 | 1500 | 11300 | – | – | – | – | – | 4 | 14 to 135 | 14 to 135 | 14 to 135 | 2 | – |

Continued, in another order:

| Kd [1] [nM] | Kd [2] [nM] | Kd [3] [nM] | Kd [4] [nM] | Kd [5] [nM] | Kd [6] [nM] | Ratio IC50 (Homo sapiens [7]) | IC50 [8] [nM] | IC50 [9] [nM] | IC50 [10] [nM] | Ratio IC50 (Homo sapiens [11]) | Selectivity ratio (Homo sapiens [12]) | Selectivity ratio (Homo sapiens [13]) | Selectivity ratio (Homo sapiens [14]) | Selectivity ratio (Homo sapiens [15]) | Selectivity ratio (Homo sapiens [16]) | Compound | Activity (TOV21G) |
| --- | --- | --- | --- | --- | --- | --- | --- | --- | --- | --- | --- | --- | --- | --- | --- | --- | --- |
| 2600 | 1000 | 110000 | 18000 | 1500 | 15000 | – | – | – | – | – | – | – | – | – | – | CC(=O)N[C@@H](Cc1ccccc1)C(=O)N[C@@H](Cc1ccccc1)C(=O)N[C@@H](C)C(=O)N[C@@H](CC(C)C)C(=O)N[C@@H](CCCC[N+](C)(C)C)C(=O)N[C@@H](CO)C(=O)N[C@@H](CCC(=O)O)C(=O)N[C@@H](CCCCNC(=S)Nc1ccc(-c2c3ccc(=O)cc-3oc3cc(O)ccc23)c(C(=O)O)c1)C(N)=O (Ac-FFAL[Lys(Me3)]SEK(X1)-NH2) | – |
| – | – | – | – | – | – | – | 2000 | 12000 | 6000 | – | – | – | – | – | – | C[C@H](NC(=O)[C@H](Cc1ccccc1)NC(=O)c1ccc(Br)cc1)C(=O)N[C@@H](Cc1ccc(O)cc1)C(=O)N[C@@H](CCCC[N+](C)(C)C)C(=O)N[C@@H](CO)C(=O)N[C@@H](CCC(=O)O)C(N)=O ({Benzoyl(4-Br)}-FAY[Lys(Me3)]SE-NH2) | Non-Toxic |
